Data taken from ChEMBL document CHEMBL1201862, “PubChem BioAssay data set” (2004).
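Briefly, cells in 96-well plates were exposed to five compound concentrations for 48 h, and endpoints were estimated by linear interpolation. Here, GI50 denotes the concentration required for 50% inhibition of growth.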 Calls of active or inactive are those of the source. Rule as the data show it: active = GI50 up to about 1.1 µM and inactive = higher.

Legend:
Test in all cases: NCI tumour cell line growth inhibition, 48 h
HCT-116 = system: HCT-116
CCRF-CEM = system: CCRF-CEM
PC-3 = system: PC-3
SR = system: SR
KM12 = system: KM12
OVCAR-5 = system: OVCAR-5
OVCAR-3 = system: OVCAR-3
UO-31 = system: UO-31
HCT-15 = system: HCT-15
DU-145 = system: DU-145
SK-MEL-2 = system: SK-MEL-2
SF-539 = system: SF-539
Malme-3M = system: Malme-3M
U-251 = system: U-251
HOP-92 = system: HOP-92
M14 = system: M14
HL-60 = system: HL-60
SK-OV-3 = system: SK-OV-3
SF-268 = system: SF-268
HOP-62 = system: HOP-62
SW-620 = system: SW-620
TK-10 = system: TK-10
SNB-75 = system: SNB-75
COLO 205 = system: COLO 205
IGROV-1 = system: IGROV-1
UACC-257 = system: UACC-257
NCI-H460 = system: NCI-H460
MOLT-4 = system: MOLT-4
RXF 393 = system: RXF 393
K562 = system: K562
LOX IMVI = system: LOX IMVI
NCI-H23 = system: NCI-H23
UACC-62 = system: UACC-62
SF-295 = system: SF-295
EKVX = system: EKVX
NCI/ADR-RES = system: NCI/ADR-RES
SN12C = system: SN12C
SK-MEL-28 = system: SK-MEL-28
OVCAR-4 = system: OVCAR-4
A549 = system: A549
RPMI-8226 = system: RPMI-8226
MDA-MB-231 = system: MDA-MB-231
Hs-578T = system: Hs-578T
HT-29 = system: HT-29
CAKI-1 = system: CAKI-1
MCF7 = system: MCF7
MDA-MB-435 = system: MDA-MB-435
SNB-19 = system: SNB-19
SK-MEL-5 = system: SK-MEL-5
ACHN = system: ACHN
MDA-N = system: MDA-N
786-0 = system: 786-0
OVCAR-8 = system: OVCAR-8
NCI-H522 = system: NCI-H522
HCC 2998 = system: HCC 2998
T47D = system: T47D

`O=C(O)CNc1ncc2c(n1)-c1ccccc1OC2` was tested. Which GI50 (HCT-116) did it give?
The GI50 was > 100 µM (inactive).

What about the GI50 (CCRF-CEM) of the same molecule?
The GI50 was > 100 µM (inactive).

And the GI50 (PC-3)?
Its GI50 is > 100 µM (inactive).

And the GI50 (SR)?
The GI50 was > 100 µM (inactive).

What about the GI50 (KM12) of the same molecule?
Its GI50 is > 100 µM (inactive).

What about the GI50 (OVCAR-5) of the same molecule?
The GI50 was > 100 µM (inactive).

And the GI50 (OVCAR-3)?
The GI50 was > 100 µM (inactive).

What about the GI50 (UO-31) of the same molecule?
The GI50 was > 100 µM (inactive).

What about the GI50 (HCT-15) of the same molecule?
The GI50 was > 100 µM.

What about the GI50 (DU-145) of the same molecule?
Its GI50 is > 100 µM (inactive).

What about the GI50 (SK-MEL-2) of the same molecule?
The GI50 was > 100 µM (inactive).

And the GI50 (SF-539)?
The GI50 was > 100 µM (inactive).

What about the GI50 (Malme-3M) of the same molecule?
Its GI50 is > 100 µM (inactive).

What about the GI50 (U-251) of the same molecule?
The GI50 was > 100 µM (inactive).

What about the GI50 (HOP-92) of the same molecule?
Its GI50 is > 100 µM (inactive).

And the GI50 (M14)?
Its GI50 is > 100 µM (inactive).

And the GI50 (HL-60)?
The GI50 was 64.3 µM (inactive).

And the GI50 (SK-OV-3)?
Its GI50 is > 100 µM (inactive).

What about the GI50 (SF-268) of the same molecule?
Its GI50 is > 100 µM (inactive).

What about the GI50 (HOP-62) of the same molecule?
Its GI50 is > 100 µM (inactive).

What about the GI50 (SW-620) of the same molecule?
Its GI50 is > 100 µM (inactive).

What about the GI50 (TK-10) of the same molecule?
The GI50 was > 100 µM (inactive).

And the GI50 (SNB-75)?
Its GI50 is > 100 µM (inactive).

What about the GI50 (COLO 205) of the same molecule?
The GI50 was > 100 µM (inactive).

What about the GI50 (IGROV-1) of the same molecule?
Its GI50 is > 100 µM (inactive).

And the GI50 (UACC-257)?
The GI50 was > 100 µM (inactive).

What about the GI50 (NCI-H460) of the same molecule?
The GI50 was > 100 µM (inactive).

And the GI50 (MOLT-4)?
Its GI50 is > 100 µM (inactive).

And the GI50 (RXF 393)?
Its GI50 is > 100 µM (inactive).

And the GI50 (K562)?
Its GI50 is > 100 µM (inactive).

And the GI50 (LOX IMVI)?
The GI50 was > 100 µM (inactive).

What about the GI50 (NCI-H23) of the same molecule?
Its GI50 is > 100 µM (inactive).

And the GI50 (UACC-62)?
Its GI50 is > 100 µM (inactive).

What about the GI50 (SF-295) of the same molecule?
The GI50 was > 100 µM (inactive).

What about the GI50 (EKVX) of the same molecule?
Its GI50 is > 100 µM (inactive).

What about the GI50 (NCI/ADR-RES) of the same molecule?
The GI50 was > 100 µM (inactive).

What about the GI50 (SN12C) of the same molecule?
The GI50 was > 100 µM (inactive).

What about the GI50 (SK-MEL-28) of the same molecule?
Its GI50 is > 100 µM (inactive).

What about the GI50 (OVCAR-4) of the same molecule?
The GI50 was > 100 µM (inactive).

What about the GI50 (A549) of the same molecule?
Its GI50 is > 100 µM (inactive).

And the GI50 (RPMI-8226)?
Its GI50 is > 100 µM (inactive).

And the GI50 (MDA-MB-231)?
The GI50 was > 100 µM (inactive).

What about the GI50 (Hs-578T) of the same molecule?
Its GI50 is > 100 µM (inactive).

And the GI50 (HT-29)?
The GI50 was > 100 µM (inactive).

What about the GI50 (CAKI-1) of the same molecule?
Its GI50 is > 100 µM (inactive).

What about the GI50 (MCF7) of the same molecule?
Its GI50 is > 100 µM (inactive).

And the GI50 (MDA-MB-435)?
Its GI50 is > 100 µM (inactive).

And the GI50 (SNB-19)?
Its GI50 is > 100 µM (inactive).

What about the GI50 (SK-MEL-5) of the same molecule?
The GI50 was > 100 µM (inactive).

And the GI50 (ACHN)?
The GI50 was > 100 µM (inactive).

And the GI50 (MDA-N)?
Its GI50 is > 100 µM (inactive).

What about the GI50 (786-0) of the same molecule?
Its GI50 is > 100 µM (inactive).

What about the GI50 (OVCAR-8) of the same molecule?
The GI50 was > 100 µM (inactive).

What does the source list for `NC(CCCCCCCCCCP(=O)(O)O)C(=O)O` (stereo unspecified)?
GI50 (HCT-116): > 100 µM (inactive); GI50 (NCI-H522): 85.5 µM (inactive); GI50 (HCC 2998): > 100 µM (inactive); GI50 (CCRF-CEM): > 100 µM (inactive); GI50 (PC-3): > 100 µM (inactive); GI50 (SR): > 100 µM (inactive); GI50 (KM12): > 100 µM (inactive); GI50 (OVCAR-5): > 100 µM (inactive); GI50 (OVCAR-3): > 100 µM (inactive); GI50 (UO-31): > 100 µM (inactive); GI50 (HCT-15): > 100 µM; GI50 (DU-145): > 100 µM (inactive); GI50 (SK-MEL-2): > 100 µM (inactive); GI50 (SF-539): > 100 µM (inactive); GI50 (U-251): > 100 µM (inactive); GI50 (HOP-92): > 100 µM (inactive); GI50 (M14): > 100 µM (inactive); GI50 (HL-60): > 100 µM (inactive); GI50 (SK-OV-3): > 100 µM (inactive); GI50 (SF-268): > 10 µM (inactive); GI50 (SW-620): > 100 µM (inactive); GI50 (TK-10): > 100 µM (inactive); GI50 (SNB-75): 7.73 µM (inactive); GI50 (COLO 205): > 100 µM (inactive); GI50 (IGROV-1): > 100 µM (inactive); GI50 (UACC-257): > 100 µM (inactive); GI50 (NCI-H460): > 100 µM (inactive); GI50 (MOLT-4): > 100 µM (inactive); GI50 (RXF 393): > 100 µM (inactive); GI50 (K562): > 100 µM (inactive); GI50 (LOX IMVI): > 100 µM (inactive); GI50 (NCI-H23): > 100 µM (inactive); GI50 (UACC-62): > 100 µM (inactive); GI50 (SF-295): > 100 µM (inactive); GI50 (EKVX): > 100 µM (inactive); GI50 (NCI/ADR-RES): > 100 µM (inactive); GI50 (SN12C): > 100 µM (inactive); GI50 (SK-MEL-28): > 100 µM (inactive); GI50 (OVCAR-4): > 100 µM (inactive); GI50 (A549): > 100 µM (inactive); GI50 (RPMI-8226): > 100 µM (inactive); GI50 (MDA-MB-231): > 100 µM (inactive); GI50 (Hs-578T): > 100 µM (inactive); GI50 (HT-29): > 100 µM (inactive); GI50 (CAKI-1): 4.23 µM (inactive); GI50 (MCF7): > 100 µM (inactive); GI50 (MDA-MB-435): > 100 µM (inactive); GI50 (SNB-19): > 100 µM (inactive); GI50 (T47D): > 100 µM (inactive); GI50 (SK-MEL-5): > 100 µM (inactive); GI50 (ACHN): > 100 µM (inactive); GI50 (MDA-N): > 100 µM (inactive); GI50 (OVCAR-8): > 100 µM (inactive)
